Read-outs that look alike come from different tables or passages of the source.
What was measured:
[1] = Stability of ebastine in ethanol composition at 40° C.; assay type: physicochemical; details: over the tested period (2 months)
[2] = Procedure: The pH of each suspension was determined using a pH meter (Orion Star A111, Thermo Scientific, Waltham, Mass.). Following, the pH of each suspension was adjusted with acid 1N HCl to the target pH. A 2 milliliter (mL) sample of the liquid portion of the mixture (supernatant) was removed from the top of each vial and spun in a micro-centrifuge (Eppendorf Minispin, Hamburg Germany) at 12,000 rpm for 2 minutes.
A 10 microliter (μL) sample was injected into a high-performance liquid chromatography machine (HPLC) (Agilent, Santa Clara, Calif.). […] The HPLC system also used a guard column (Phenomenex, Inc.) and a mobile phase consisting of a base solvent of 70 percent (v/v) methanol (Spectrum Chemicals, Gardena, Calif.), and 30 percent (v/v) 40 mM potassium phosphate buffer, pH 4.0 (Spectrum Chemicals, Gardena, Calif.). The HPLC flow rate was 1 mL per minute with a column temperature of 40 degrees centigrade, a detection wavelength of 262 nanometers (nm), and a runtime of at least 15 minutes.

[3] = remark: listed apart in the source
Excerpt: Addition of the solvent was repeated until the test material was completely dissolved, resulting in a visually clear solution.

male C57BL/6J mice [4] = details: 2% (w/w) ebastine in ethanol/propylene glycol, topical 2.5 mg/cm^2 daily
Experimental: Penetration into the skin was assessed in a sample size of three male mice.
The skin surface of the shaved patch was wiped clean with phosphate buffer saline (1×PBS). Mice were left to acclimate overnight.
For five weeks, the test composition was applied daily at a dose of 2.5 mg/cm^2 using a positive displacement pipette and carefully spread in the 12 cm^2 test area using a clean metal spatula.
At the end of the 5-week study period, 10 hairs from each site were plucked from the upper-middle, middle, and lower-middle patch area of each of the mice. In addition, 10 hairs were plucked from outside the patch area for each of the mice in the nontreatment group. The length of each of the plucked hairs was measured with a microcaliper and the resulting values were averaged.
In the study (as described supra), mice were shaved while in the telogen phase. Shaving stimulated hair growth by inducing the transition from rest (telogen phase) to growth (anagen phase). The shaved patch area for each mouse was observed daily for anagen onset, i.e., the first day of the anagen phase of the hair cycle.

male C57BL/6J mice [5] = details: topical 2.5 mg/cm^2 daily, 5 weeks; monitored throughout the study
Experimental: The modified Draize test is an acute erythema test carried out as follows. A C57BL/6J mouse is shaved in an application area, and the application area allowed to rest for approximately 24 hours and then rinsed with non-irritating soap. A test composition is applied evenly, without significant rubbing, to a 12 cm^2 area of the mouse's skin in a volume of 2.5 mg/cm^2. The sample is allowed to sit uncovered for 24 hours. After 24 hours, the application area is washed gently with lx phosphate buffered saline (1×PBS) and non-irritating soap to facilitate observation of the application area. The application area is then scored according to the following scale: 0=no evidence of erythema; 1=minimal erythema, barely perceptible; 2=definite erythema, readily visible, minimal edema or minimal popular response; 3=erythema and papules; 4=definite edema; 5=erythema, edema, and papules; 6=vesicular eruption; 7=strong reaction spreading beyond test site.
The skin surface of the shaved patch was wiped clean with phosphate buffer saline (1×PBS). Mice were left to acclimate overnight. […]
Clinical signs such as behavior were monitored throughout the study. […] The patch area was assessed for signs of erythema using the modified Draize scoring system and dryness every other day throughout the study period.

stability of ebastine in ethanol [1]: stable | Ebastine Solubility in 90:10 Ethanol:Water ([2]; pH 2.3, room temperature): 30.38 (mg/g) | Ebastine Solubility in 90:10 Ethanol:Water ([2]; pH 6.16, room temperature): 33.35 (mg/g) | Ebastine Solubility in 90:10 Ethanol:Water ([2]; pH 7.76, room temperature): 16.58 (mg/g) | Ebastine Solubility in 90:10 Ethanol:Water ([2]; pH 9.90, room temperature): 15.3 (mg/g) | solubility in ethanol and water mixture compared with ethanol alone or water alone ([2]; pH less than about 7, such as 2.3 to 6.2): exceeded | solubility of ebastine in water alone ([2]; water alone, useful pH ranges): less than 2 mg/g | Ebastine Solubility in water ([2]; pH 3.04, room temperature): 1.4 (mg/g) | Ebastine Solubility in water ([2]; pH 5.06, room temperature): 0 (mg/g) | Ebastine Solubility in water ([2]; pH 6.91, room temperature): 0 (mg/g) | EBASTINE SOLUBILITY AT ROOM TEMP ([3]; Benzyl Benzoate): >45.0 mg/g | EBASTINE SOLUBILITY AT ROOM TEMP ([3]; Diethyl Sebacate): 120.6 mg/g | EBASTINE SOLUBILITY AT ROOM TEMP ([3]; Diethylene Glycol Monoethyl Ether): 33.9 mg/g | EBASTINE SOLUBILITY AT ROOM TEMP ([3]; Dimethyl Succinate): 0.47 mg/g | EBASTINE SOLUBILITY AT ROOM TEMP ([3]; Ethyl Acetate): 245.2 mg/g | EBASTINE SOLUBILITY AT ROOM TEMP ([3]; Methylpyrrolidone): >23.1 mg/g | EBASTINE SOLUBILITY AT ROOM TEMP ([3]; Triacetin): <1.1 mg/g | amount of ebastine soluble in 1 gram of diethyl sebacate ([3]; in 1 gram of diethyl sebacate): approximately 120.6 mg | clinical signs: behavior (male C57BL/6J mice [5]): No abnormal behavior
SMILES: CC(C)(C)c1ccc(C(=O)CCCN2CCC(OC(c3ccccc3)c3ccccc3)CC2)cc1 [Ebastine, 1-[4-(1,1-dimethylethyl)phenyl]-4-[4-(diphenylmethoxy)-1-piperidinyl]-1-butanone]
solubility class in 9:1 ethanol:water ([2]; pH range of from 2 to 6): soluble (solubility of 33.3 mg/g or greater) | solubility class in 9:1 ethanol:water ([2]; pH values above 6, such as 7 to 10): at least sparingly soluble (solubility of 10.0 mg/g or greater) | solubility class in water ([2]; pH below 5.0, such as 3.0 to 5.0): slightly soluble (solubility of 1.0 to 10.0 mg/g) | solubility class in water ([2]; pH in the range of 5 to 7, room temperature): insoluble (solubility of less than 1.0 mg/g) | solubility class in water ([2]; pH values of 5 and above): insoluble (solubility of less than 1.0 mg/g) | time to significant anagen induction (average) (male C57BL/6J mice [4]; mice shaved in telogen phase): 10 days | total average patch coverage with hair (male C57BL/6J mice [4]; study end, after 5 weeks): 90 % of the total patch area

Reference: patent US20200129495A1 (BioPharmX, Inc., priority 2018, published 2020)
